Key:
Hepatitis C virus [1] = assay: Ratio of EC50 for wild type HCV1b harboring NS3 protease gene to EC50 for HCV1b harboring NS3 protease Q80K mutant; assay type: functional, Hepacivirus hominis, genotype 1b
Hepatitis C virus [2] = assay: Ratio of EC50 for HCV1b harboring Q80K polymorphism in NS3 protease gene to EC50 for HCV1b harboring Q80Q polymorphism in NS3 protease gene; assay type: functional, Hepacivirus hominis, genotype 1b
Hepatitis C virus [3] = assay: Ratio of EC50 for wild type HCV1b harboring NS3 protease gene to EC50 for HCV1b B13 harboring NS3 protease R26K, V46I, Q80L mutant; assay type: functional, Hepacivirus hominis, genotype 1b
Hepatitis C virus [4] = assay: Ratio of EC50 for wild type HCV1b harboring NS3 protease gene to EC50 for HCV1b B10 harboring NS3 protease S7A, R26K, V48I, T54S mutant; assay type: functional, Hepacivirus hominis, genotype 1b
Hepatitis C virus [5] = assay: Ratio of EC50 for wild type HCV1b harboring NS3 protease gene to EC50 for HCV1b A25 harboring NS3 protease T40A, T54S, V55I, I64L, P67S, Q80K, Q88H, S90A, L153I mutant; assay type: functional, Hepacivirus hominis, genotype 1b
Hepatitis C virus [6] = assay: Ratio of EC50 for wild type HCV1b harboring NS3 protease gene to EC50 for HCV1b harboring NS3 protease Q80K, T54S mutant; assay type: functional, Hepacivirus hominis, genotype 1b
Hepatitis C virus [7] = assay: Antiviral activity against HCV1b harboring Q80K polymorphism in NS3 protease gene infected in human Huh7/Lunet cells assessed as inhibition of viral replication after 3 days by luciferase based transient-transfection assay; assay type: functional, organism-based, Hepacivirus hominis; details: genotype 1b, Huh-7, 72 h
Hepatitis C virus [8] = assay: Antiviral activity against HCV1b harboring Q80Q polymorphism in NS3 protease gene infected in human Huh7/Lunet cells assessed as inhibition of viral replication after 3 days by luciferase based transient-transfection assay; assay type: functional, organism-based, Hepacivirus hominis; details: genotype 1b, Huh-7, 72 h
Hepatitis C virus [9] = assay: Ratio of EC50 for wild type HCV1b harboring NS3 protease gene to EC50 for HCV1b harboring NS3 protease T54S mutant; assay type: functional, Hepacivirus hominis, genotype 1b
Hepatitis C virus [10] = assay: Antiviral activity against HCV1b Con1 harboring NS3 protease gene infected in human Huh7/Lunet cells assessed as inhibition of viral replication after 3 days by luciferase based transient-transfection assay; assay type: functional, organism-based, Hepacivirus hominis; details: Con1, Huh-7, 72 h

## CC(C)(C)NC(=O)N[C@H](C(=O)N1C[C@H]2[C@@H]([C@H]1C(=O)NC(CC1CCC1)C(=O)C(N)=O)C2(C)C)C(C)(C)C (stereo partly specified) [BOCEPREVIR]
Hepatitis C virus [1]
  Ratio EC50: 0.9
Hepatitis C virus [2]
  Ratio EC50: 0.4
Hepatitis C virus [3]
  Ratio EC50: 1
Hepatitis C virus [4]
  Ratio EC50: 9
Hepatitis C virus [5]
  Ratio EC50: 1.7
Hepatitis C virus [6]
  Ratio EC50: 1.7
Hepatitis C virus [7]
  EC50: 91.5 nM
Hepatitis C virus [8]
  EC50: 201 nM
Hepatitis C virus [9]
  Ratio EC50: 4.7
Hepatitis C virus [10]
  EC50: 276 nM

## COc1ccc2c(O[C@@H]3C[C@H]4C(=O)N[C@]5(C(=O)NS(=O)(=O)C6CC6)C[C@H]5/C=C\CCCCN(C)C(=O)[C@@H]4C3)cc(-c3nc(C(C)C)cs3)nc2c1C [SIMEPREVIR]
Hepatitis C virus [1]
  Ratio EC50: 10.9
Hepatitis C virus [2]
  Ratio EC50: 7.5
Hepatitis C virus [3]
  Ratio EC50: 1
Hepatitis C virus [4]
  Ratio EC50: 0.8
Hepatitis C virus [5]
  Ratio EC50: 10.8
Hepatitis C virus [6]
  Ratio EC50: 7.3
Hepatitis C virus [7]
  EC50: 20.1 nM
Hepatitis C virus [8]
  EC50: 2.7 nM
Hepatitis C virus [9]
  Ratio EC50: 0.7
Hepatitis C virus [10]
  EC50: 3.3 nM

## CCC[C@H](NC(=O)[C@@H]1[C@H]2CCC[C@H]2CN1C(=O)[C@@H](NC(=O)[C@@H](NC(=O)c1cnccn1)C1CCCCC1)C(C)(C)C)C(=O)C(=O)NC1CC1 [TELAPREVIR]
Hepatitis C virus [1]
  Ratio EC50: 1
Hepatitis C virus [2]
  Ratio EC50: 0.5
Hepatitis C virus [3]
  Ratio EC50: 1
Hepatitis C virus [4]
  Ratio EC50: 6.2
Hepatitis C virus [5]
  Ratio EC50: 1
Hepatitis C virus [6]
  Ratio EC50: 2.3
Hepatitis C virus [7]
  EC50: 72 nM
Hepatitis C virus [8]
  EC50: 176 nM
Hepatitis C virus [9]
  Ratio EC50: 5.6
Hepatitis C virus [10]
  EC50: 377 nM

## CCCCCOc1ccc(NC(=S)NC(=O)c2cccnc2)cc1C(F)(F)F
Hepatitis C virus [10]
  EC50: 28.2 nM

## CC(C)(C)OC(=O)N[C@H]1CCCCC/C=C\[C@@H]2C[C@@]2(C(=O)NS(=O)(=O)C2CC2)NC(=O)[C@@H]2C[C@@H](OC(=O)N3Cc4cccc(F)c4C3)CN2C1=O [DANOPREVIR]
Hepatitis C virus [1]
  Ratio EC50: 6.3
Hepatitis C virus [2]
  Ratio EC50: 1.7
Hepatitis C virus [3]
  Ratio EC50: 1.7
Hepatitis C virus [4]
  Ratio EC50: 1.2
Hepatitis C virus [5]
  Ratio EC50: 2.7
Hepatitis C virus [6]
  Ratio EC50: 5.3
Hepatitis C virus [7]
  EC50: 0.62 nM
Hepatitis C virus [8]
  EC50: 0.25 nM
Hepatitis C virus [9]
  Ratio EC50: 1
Hepatitis C virus [10]
  EC50: 0.6 nM

## CC[C@@H]1C[C@]1(NC(=O)[C@@H]1C[C@@H]2CN1C(=O)[C@H](C(C)(C)C)NC(=O)OCC(C)(C)CCCCc1cccc3c1CN(C3)C(=O)O2)C(=O)NS(=O)(=O)C1CC1 [VANIPREVIR]
Hepatitis C virus [1]
  Ratio EC50: 6.6
Hepatitis C virus [2]
  Ratio EC50: 1.5
Hepatitis C virus [3]
  Ratio EC50: 1.5
Hepatitis C virus [4]
  Ratio EC50: 1.2
Hepatitis C virus [5]
  Ratio EC50: 2.2
Hepatitis C virus [6]
  Ratio EC50: 3.7
Hepatitis C virus [7]
  EC50: 0.41 nM
Hepatitis C virus [8]
  EC50: 0.27 nM
Hepatitis C virus [9]
  Ratio EC50: 0.5
Hepatitis C virus [10]
  EC50: 0.7 nM

From ChEMBL document CHEMBL1687806, “Susceptibility of treatment-naive hepatitis C virus (HCV) clinical isolates to HCV protease inhibitors” (Antimicrob Agents Chemother, 2010)
